Experimental data taken from patent US9888679B2, “Protection of progenitor cells and regulation of their differentiation” (Proteobioactives Pty Ltd, priority 2007, dated 2018).
Several values for one entry are separate records, joined by “and”; a condition that tells them apart may be missing. Identical values can stand only once.

System: Murine Progenitor Cell (C3H10T1/2)
Assay: Proteoglycan biosynthesis (35S-GAG) and DNA content in monolayer cultures
Format: cell-based
Conditions: for biosynthesis of proteoglycans: all concentrations of PPS
Description: FIG. 9. Concentration dependent effects of Pentosan Polysulfate (PPS) on Murine Progenitor Cell (progenitor cells C3H10T1/2) biosynthesis of Proteoglycans (PGs) and DNA content when grown in monolayer cultures. Data shown=Means±SD.
Murine Progenitor cells (cell lines C3H10T1/2 or ATDC5) purchased from RIKEN Cell Bank (Tsukuba, Japan) or human immunoselected Stro-1+ Progenitor cells (Mesoblast Ltd, Melbourne, Australia) were seeded into 50 mL plastic culture flasks containing 1:1 high glucose DMEM/Ham's F-12 medium (Invitrogen) supplemented with 10% FBS (Sigma) and incubated at 37° C., in 5% CO2. After confluence was reached, progenitor cells were released by trypsinization and harvested by centrifugation. Cells were inoculated to 96-well or 24-well plates at a density of 3×10^4 cells or 2×10^5 cells per well. After 48-hour incubation at 37° C., 5% CO2 confluent monolayers were normally established. The medium was then changed to defined medium, which contained different concentrations of PPS with and without rhNC4 and 5 μCi/ml of ^35S—H2SO4 (PerkinElmer, USA). The experiments were generally terminated after 48 hours incubation when proteoglycan biosynthesis was determined by measuring the incorporation of ^35SO4 into the glycosaminoglycans (^35S-GAGs) as described below.
(A) 96-well plates: Cultures were subjected to proteolytic digestion with papain to release glycosaminoglycans. The papain stock solution used contained 2.5 mg/ml papain (Sigma), 7.9 mg/ml cysteine-HCl (Sigma) in papain digest buffer (0.1M NaAc, 5 mM EDTA, pH6.0). 50 μl of papain stock solution was added to each well. The plate was sealed using plastic sheeting and incubated at 65° C. for 2 hours. […]
The ^35SO4-GAGs in the remained solution (200 ul) were precipitated with Cetyl Pyridinium Chloride (CPC) (Sigma). […] Following addition of 3 ml scintillation liquid and vortexing the radioactivity of the ^35S-GAG-CPC complexes were in the samples were measured by scintillation counting (PerkinElmer, USA) and recorded as DPM/sample. The data then was then normalised for DNA and expressed as ^35-S-GAGs/μg DNA.
(B) 24-well plates: After 48 hours incubation in the defined media, the media per well (containing soluble ^35S-labelled proteoglycans) was separated from the cells and transferred to a 2.0 ml microfuge tube. […] The 35S-GAG-CPC complexes collected through the fibre filter and the radioactivity of 35S-GAG was measured using the liquid scintillation analyser as describe above. The cells were extracted with the RNA reagent and aliquots used to determine gene expression and/or the DNA content was measured by the fluorometric assay and the results expressed as ^35-S-GAGs/μg DNA. […]

pentosan polysulfate [PPS]
PPS concentration best with regard to DNA content (FIG. 9): 5 μl/ml and 10 μl/ml
PPS concentration best with regards to PG synthesis (FIG. 9): 10 μl/ml
biosynthesis of proteoglycans (FIG. 9): increased
biosynthesis of proteoglycans (FIG. 9, listed as polysulfated polysaccharides): chondrogenic promoting effect
